Assay results: patent US10385036B2, “Sulfonamide-substituted indole modulators of RORC2 and methods of use thereof” (Pfizer Inc., priority 2015, dated 2019)
Where two headings read alike, the source gives them in different places.

Columns and labels:
[1] = tested on: IL-17 production from human Th17 cells; test: Assay of IL-17 production from human Th17 cells; format: cell-based; details: 144 h
Description: The activity of compound of the invention can be also be determined by an IL-17 production from human Th17 cells assay. In general, this assay measures blockade of IL-17 production, the signature cytokine of T helper 17 (Th17) cells, by compounds. Purified human CD4+ T cells are stimulated with anti-CD3+anti-CD28 and incubated with a cytokine cocktail that induce their differentiation into Th17 in the absence or presence of various concentrations of compound. After 6 days, IL-17A concentration is measured in the cell culture supernatant with an ELISA kit (MSD).
Preparation of human CD4+ T cells. CD4+ T cells were purified from buffy coats from healthy donors (obtained from Massachusetts General Hospital) by negative selection the following procedure: Mixing 25 mL of blood with 1 mL of Rosette Sep CD4+ T cell enrichment cocktail (StemCell Technologies) followed by application of a layer of 14 mL Ficoll Paque Plus (Amersham GE Healthcare) and subsequent centrifugation at 1200 g for 20 min at room temperature. The Ficoll layer was then harvested and washed with phosphate saline buffer containing 2% (v/v) fetal bovine serum and cells were resuspended with RPMI medium containing 10% (v/v) fetal bovine serum and 10% (v/v) DMSO, frozen and kept in LN2 until used.
[…] Serial dilutions of compounds of the invention are prepared at 10× final concentration in X-Vivo15 medium containing 3% (v/v) DMSO.
On the second day of the assay, a 384-well tissue culture plate was coated with 10 μg/mL anti-hCD3 (eBioscience) at 50 μL/well. After 2 hr at 37° C., the supernatant is discarded and the coated plates are kept in a sterile tissue culture hood.
The cytokine plus anti-CD28 cocktail with CD4+ cells is prepared such that the cocktail is diluted 10-fold and cell density is 0.22×10^6/mL. The mixture is incubated 1 hr at 37° C.
90 μL (20,000 cells) dispensed per well in the anti-hCD3 coated plate prepared as noted above.
10 μL 10× compound is added per well (final DMSO=0.3%) from the compound plate that was previously prepared, followed by 6 days of incubation in a tissue culture vessel in a humidified chamber at 37° C. and 5% CO2.
Measurement is carried out in a Sector Imager 6000 by the same manufacturer. Signal units from the instrument are converted to pg/mL using a calibration curve with known amounts of IL-17A. IC50 values of test compounds (Table 2) are determined by the non-linear regression analysis of dose response curves.

[2] = biological target: RORC2 ligand binding domain (6-His-RORC2 LBD) (Homo sapiens (Human), UniProt P51449); test: Assay of co-activator recruitment by TR-FRET; format: biochemical; details: 6-His-RORC2 LBD / biotin-coactivator peptide SRC1-2 interaction, 3 hr room temperature
Chain of RORC2 ligand binding domain (6-His-RORC2 LBD) (P51449 269-508): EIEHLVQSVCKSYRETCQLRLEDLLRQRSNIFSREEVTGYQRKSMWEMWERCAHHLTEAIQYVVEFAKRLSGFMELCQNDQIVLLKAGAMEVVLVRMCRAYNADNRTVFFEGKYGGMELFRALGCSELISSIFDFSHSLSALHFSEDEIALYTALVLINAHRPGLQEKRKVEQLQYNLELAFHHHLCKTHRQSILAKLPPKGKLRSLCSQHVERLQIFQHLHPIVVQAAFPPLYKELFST
Description: The activity of compound of the invention can be determined by a co-activator recruitment by TR-FRET (time-resolved fluorescence resonance energy transfer) assay. […] When receptor and coactivator are bound to each other, upon shining light at 337 nm on the sample, the Europium emits fluorescence that excites APC due to close proximity (FRET) and this signal is measured at 665 nm. Due to the long lasting fluorescence emission of Europium, the non-specific, short-lived fluorescence is time-resolved (TR) from the fluorescence of interest. Inhibitors of the interaction of receptor and coactivator peptide are detected by a decrease in TR-FRET signal.
Specifically, in one embodiment the aforementioned assay was performed as outlined below. The assay was carried out in black polystyrene, 384-well plates in a total assay volume of 50.5 μL. The assay buffer contained 50 mM TRIS-HCL pH 7.5, 1 mM NaCl, 2 mM MgCl2, 0.5 mg/mL bovine serum albumin, and 5 mM dithiothreitol.

[3] = IL-17A in supernatant by ELISA (MSD) after 6 days, human CD4+ T cells differentiated into Th17, read-out: IC50

IC50 ([1]; Homo sapiens, CD4+ T) [nM]	IC50 [2] [nM]	IC50 [1, 3] [nM]	SMILES
121			C[C@H]1CN(C(=O)C2CCCC2)CC[C@H]1c1cn(C)c2ccc(NS(=O)(=O)c3ccc(F)cc3)cc12 (single isomer, unassigned) [Example 3]
137			C[C@@H]1CN(C(=O)C2CCCC2)CC[C@@H]1c1cn(C)c2ccc(NS(=O)(=O)c3ccc(F)cc3)cc12 (single isomer, unassigned) [Example 4]
	5.1	90.3	CC(C)C(=O)N1CC[C@@H](c2cn(C)c3ccc(NS(=O)(=O)c4ccc(F)cc4)cc23)[C@@H](C)C1 (single isomer, unassigned) [Example 5]
	7	19	CC(C)C(=O)N1CC[C@@H](c2cn(C)c3ccc(NS(=O)(=O)c4ccc(F)cc4)cc23)CC1(C)C (single isomer, unassigned) [Example 18]
	3.7	191	Cn1cc([C@@H]2CCN(C(=O)C3CCCC3)C(C)(C)C2)c2cc(NS(=O)(=O)c3ccc(F)cc3)ccc21 (single isomer, unassigned) [Example 19]
	2.5	3.3	Cc1nn(C)c(C)c1S(=O)(=O)Nc1ccc2c(c1)c([C@@H]1CCN(C(=O)[C@H](C)C3CCCC3)C[C@@H]1C)cn2C (single isomer, unassigned) [Example 32]
	1.1	8.4	CCOc1ccccc1S(=O)(=O)Nc1ccc2c(c1)c([C@@H]1CCN(C(=O)[C@H](C)C3CCCC3)C[C@@H]1C)cn2C (single isomer, unassigned) [Example 33]
4.2			C[C@@H](C(=O)N1CC[C@@H](c2cn(C)c3ccc(NS(=O)(=O)c4ccccc4F)cc23)[C@@H](C)C1)C1CCCC1 (single isomer, unassigned) [Example 34]
8.4			Cc1ccc(F)c(S(=O)(=O)Nc2ccc3c(c2)c([C@@H]2CCN(C(=O)[C@H](C)C4CCCC4)C[C@@H]2C)cn3C)c1 (single isomer, unassigned) [Example 35]
	8.2	13.5	C[C@H]1CN(C(=O)[C@H](C)C(C)(C)C)CC[C@H]1c1cn(C)c2ccc(NS(=O)(=O)c3ccc(F)cc3)cc12 [Example 1, 4-fluoro-N-(1-methyl-3-((3R,4R)-3-methyl-1-((R)-2,3,3-trimethylbutanoyl)piperidin-4-yl)-1H-indol-5-yl)benzenesulfonamide]
4.8			C[C@@H](C(=O)N1CC[C@@H](c2cn(C)c3ccc(NS(=O)(=O)c4ccc(F)cc4)cc23)[C@@H](C)C1)C1CCCC1 [Example 2, N-(3-((3R,4R)-1-((R)-2-cyclopentylpropanoyl)-3-methylpiperidin-4-yl)-1-methyl-1H-indol-5-yl)-4-fluorobenzenesulfonamide]
	75.9	276	Cn1cc(C2CCN(C(=O)c3ccns3)CC2)c2cc(NS(=O)(=O)c3ccc(F)cc3)ccc21 [Example 6, 4-fluoro-N-(3-(1-(isothiazole-5-carbonyl)piperidin-4-yl)-1-methyl-1H-indol-5-yl)benzenesulfonamide]
	4.5	28.1	C[C@@H](C(=O)N1CCC(c2cn(C)c3ccc(NS(=O)(=O)c4ccc(F)cc4)cc23)CC1)C1CCCC1 [Example 7, (R)-N-(3-(1-(2-cyclopentylpropanoyl)piperidin-4-yl)-1-methyl-1H-indol-5-yl)-4-fluorobenzenesulfonamide]
	17.1	184	Cn1cc(C2CCN(C(=O)C3CC3)CC2)c2cc(NS(=O)(=O)c3ccc(F)cc3)ccc21 [Example 8, N-(3-(1-(cyclopropanecarbonyl)piperidin-4-yl)-1-methyl-1H-indol-5-yl)-4-fluorobenzenesulfonamide]
	14.8	99.1	CC(CC(=O)N1CCC(c2cn(C)c3ccc(NS(=O)(=O)c4ccc(F)cc4)cc23)CC1)C(F)(F)F (stereo not drawn) [Example 9, 4-fluoro-N-(1-methyl-3-(1-(4,4,4-trifluoro-3-methylbutanoyl)piperidin-4-yl)-1H-indol-5-yl)benzenesulfonamide]
29			C[C@@H](C(=O)N1CCC(c2cn(C)c3ccc(NS(=O)(=O)c4ccc(F)cc4)cc23)CC1)C(C)(C)C [Example 10, (R)-4-fiuoro-N-(1-methyl-3-(1-(2,3,3-trimethylbutanoyl)piperidin-4-yl)-1H-indol-5-yl)benzenesulfonamide]
	7.8	127	CC(C)CC(=O)N1CCC(c2cn(C)c3ccc(NS(=O)(=O)c4ccc(F)cc4)cc23)CC1 [Example 12, 4-Fluoro-N-(1-methyl-3-(1-(3-methylbutanoyl)piperidin-4-yl)-1H-indol-5-yl)benzenesulfonamide]
221			Cn1cc(C2CCN(C(=O)C3CCCCC3)CC2)c2cc(NS(=O)(=O)c3ccc(F)cc3)ccc21 [Example 14, N-(3-(1-(cyclohexanecarbonyl)-piperidin-4-yl)-1-methyl-1H-indol-5-yl)-4-fluorobenzenesulfonamide]
633			C[C@H]1C[C@@H](c2cn(C)c3ccc(NS(=O)(=O)c4ccc(F)cc4)cc23)CCN1C(=O)C1CCCC1 [Example 20, N-(3-((2S,4S)-1-(cyclopentanecarbonyl)-2-methylpiperidin-4-yl)-1-methyl-1H-indol-5-yl)-4-fluorobenzenesulfonamide]
88.7			C[C@H]1C[C@H](c2cn(C)c3ccc(NS(=O)(=O)c4ccc(F)cc4)cc23)CCN1C(=O)C1CCCC1 [Example 21, N-(3-((2S,4R)-1-(cyclopentanecarbonyl)-2-methylpiperidin-4-yl)-1-methyl-1H-indol-5-yl)-4-fluorobenzenesulfonamide]
1460			CC(C)C(=O)N1CCC(c2cn(C)c3ccc(NS(=O)(=O)c4ccc(F)c(O)c4)cc23)CC1 [Example 23, 4-fluoro-3-hydroxy-N-(3-(1-isobutyrylpiperidin-4-yl)-1-methyl-1H-indol-5-yl)benzenesulfonamide]
69.5			CC(C)C(=O)N1CCC(c2cn(C)c3ccc(NS(=O)(=O)c4ccc(F)c(O[C@@H]5CCOC5)c4)cc23)CC1 [Example 24, (R)-4-fluoro-N-(3-(1-isobutyrylpiperidin-4-yl)-1-methyl-1H-indol-5-yl)-3-((tetrahydrofuran-3-yl)oxy)benzenesulfonamide]
10.6			Cc1ccc(S(=O)(=O)Nc2ccc3c(c2)c(C2CCN(C(=O)[C@H](C)C(C)(C)C)CC2)cn3C)cc1 [Example 25, (R)-4-methyl-N-(1-methyl-3-(1-(2,3,3-trimethylbutanoyl)piperidin-4-yl)-1H-indol-5-yl)benzenesulfonamide]
16			CCOc1ccccc1S(=O)(=O)Nc1ccc2c(c1)c(C1CCN(C(=O)[C@H](C)C(C)(C)C)CC1)cn2C [Example 27, (R)-2-ethoxy-N-(1-methyl-3-(1-(2,3,3-trimethylbutanoyl)piperidin-4-yl)-1H-indol-5-yl)benzenesulfonamide]
11.4			C[C@@H](C(=O)N1CCC(c2cn(C)c3ccc(NS(=O)(=O)c4ccccc4F)cc23)CC1)C(C)(C)C [Example 28, (R)-2-fluoro-N-(1-methyl-3-(1-(2,3,3-trimethylbutanoyl)piperidin-4-yl)-1H-indol-5-yl)benzenesulfonamide]
28.5			C[C@@H](C(=O)N1CCC(c2cn(C)c3ccc(NS(=O)(=O)c4ccccc4)cc23)CC1)C(C)(C)C [Example 29, (R)-N-(1-methyl-3-(1-(2,3,3-trimethylbutanoyl)piperidin-4-yl)-1H-indol-5-yl)benzenesulfonamide]

SMILES	IC50 ([1]; Homo sapiens, CD4+ T) [nM]	IC50 [2] [nM]	IC50 [1, 3] [nM]
Cn1cc(C2CCN(C(=O)C3CCC3)CC2)c2cc(NS(=O)(=O)c3ccc(F)cc3)ccc21 [Example 11, N-(3-(1-(cyclobutanecarbonyl)piperidin-4-yl)-1-methyl-1H-indol-5-yl)-4-fluorobenzenesulfonamide]		28.8	148
